{"source": "patent US12458624B2", "about": "“Deuterium-enriched substituted phenoxyphenyl acetic acids and acylsulfonamides” (priority 2019, dated 2025)", "key": {"male mongrel dogs": {"system": "male mongrel dogs", "assay": "Endothelin-1-induced changes in diastolic and urethral pressures in the anesthetized male dog", "format": "in vivo", "protocol": "Methodology for Determining Whether an ET-1 Receptor Selective Antagonist could Inhibit the ET-1 Mediated Prostatic Urethral Contractions in a Mongrel Dog Model:\nOn separate days, two fasted male mongrel dogs (from commercial suppliers) weighing 11.0 and 12.4 kilograms (kg), are anesthetized with sodium pentobarbital at 35 mg/kg (i.v.) to effect, followed by 4 mg/kg/hr (i.v.) infusion. A cuffed endotracheal tube is inserted and each animal is ventilated with room air using a positive displacement large animal ventilator at a rate of 18 breaths/minute and an average tidal volume of 18 mL/kg body weight. Body temperature is maintained with a heating pad and heat lamp using a temperature controller and esophageal probe. Two catheters are placed in the aorta via the femoral arteries (one in each artery) for administration of endothelin or phenylephrine and for continuous direct monitoring of blood pressure and heart rate using a Statham blood pressure transducer (Spectramed) and a computer system (Modukar Instruments, Inc.). Two other catheters are placed in the vena cava via the femoral veins (one catheters in each vein) for administration of pentobarbital and N-(4-isopropyl (d7)-benzenesulfonyl)-α-(4-carboxy-2-n-propylphenoxy)-3,4-methylenedioxyphenylacetamide dipotassium salt.\nA supra-pubic incision approximately one-half inch lateral to the penis is made to expose the ureters, urinary bladder, prostate, and urethra. The dome of the bladder is retracted to facilitate dissection of the ureters. The ureters are cannulated with PE 90 and tied off to the bladder. Umbilical tape is passed beneath the urethra at the bladder neck and another piece of tape is placed approximately 1-2 cm distal to the prostate. The bladder is incised and a Micro-tip catheter transducer is advanced into the urethra. The neck of the bladder is ligated with the umbilical tape to hold the transducer. The bladder incision is sutured with 3-0 silk (purse string suture). The transducer is withdrawn until it is positioned in the prostatic urethra. The position of the Micro-tip catheter is verified by gently squeezing the prostate and noting the large change in urethral pressure prior to ligating the distal urethra.\nPhenylephrine (10 μg/kg, intra-arterial) is administered and pressor effects on diastolic blood pressure (DBP) and intra-urethral pressure (IUP) is noted. When blood pressure returned to baseline, endothelin-1 (1 nmole/kg, intra-arterial) is administered. Changes in DBP and IUP are monitored for one hour and an ET-1 selective endothelin antagonist, such as the deuterated compound, N-(4-isopropyl(d7)benzenesulfonyl)-α-(4-carboxy-2-n-propylphenoxy)-3,4-methylenedioxyphenyl-acetamide dipotassium salt (30 mg/kg, intra-venous), is administered. […] Phenylephrine is administered at the end of experiment to verify specificity for ET-1 blockade. The dogs are euthanized with an overdose of pentobarbital followed by saturated KCl.\nThe drugs utilized in the experiment described above are: • (1) Phenylephrine, HCl (PE) (Sigma Chemical Co.) is given at a volume of 0.05 mL/kg; • (2) Endothelin-1 (ET-1) (Human, Porcine, Canine, rat, Mouse, Bovine) is given at a volume of 0.05 mL/kg; • (3) ET-1 selective antagonist, such as the deuterated compound N-(4-isopropyl(d7)benzenesulfonyl)-α-(4-carboxy-2-n-propyl-[…]phenoxy)-3,4-methylenedioxyphenyl-acetamide dipotassium salt, is given at a volume of 0.3 mL/kg. • All drugs are dissolved in isotonic saline solution."}, "rat prostate": {"system": "rat prostate", "assay": "In situ rat prostate, ET-1 induced contraction", "format": "in vivo, Sprague-Dawley rats", "settings": "ET-1 0.3 nmoles/kg intra-arterial; antagonist IA five minutes before third ET-1 injection", "protocol": "Male Sprague-Dawley rats weighing 300-400 grams are anesthetized with urethane (1.75 g/kg, ip), a tracheal cannula is inserted, and the femoral artery is cannulated. Core body temperature is maintained at 37° C. A 4-5 cm midline abdominal incision is made to expose the bladder and prostate. The prostate is separated from the bladder and surrounding capsule by blunt dissection with a forcep. A length of surgical silk is gently secured around the anterior tips of the prostate lobes. A second length of surgical silk attached to an atraumatic needle is passed through and tied to the base of the prostate approximately 10-12 mm posterior to the first tie. The posterior ligature is secured to an anchor post whereas the anterior ligature is connected to a Grass FT03 transducer and maintained at a tension of 1 g. Signals from the transducer are amplified and recorded on a polygraph (Hewlett-Packard 8805B amplifiers and 7758 recorder, Palo Alto, CA). After equilibrating for over 15 min, the rats are administered pretreatment drugs (atropine 1 mg/kg, (+) propranolol 1 mg/kg) 10 min apart through the intra-arterial (IA) cannula. […] The response of the prostate to ET-1 is quantified by measuring the change from baseline tension to the peak of the response during the five-minute period after the third ET-1 injection. […]"}, "[1]": {"system": "canine model of renovascular hypertension", "settings": "J. Hypertens. 1998, 16, 835-841; cited from earlier work"}, "[2]": {"settings": "ET-1 1 nmole/kg intra-arterial, before antagonist, average"}, "[3]": {"settings": "30 mg/kg i.v., ET-1 1 nmole/kg intra-arterial challenge ten to 15 minutes after administration"}, "[4]": {"settings": "PE 10 μg/kg intra-arterial after antagonist 30 mg/kg i.v., one dog"}}}
{"smiles": "CC[C@H](C)[C@H](NC(=O)[C@H](CC(=O)O)NC(=O)[C@H](CC(C)C)NC(=O)[C@H](Cc1c[nH]cn1)NC(=O)[C@@H]1CSSC[C@H](N)C(=O)N[C@@H](CO)C(=O)N[C@H]2CSSC[C@H](NC(=O)[C@H](CCC(=O)O)NC(=O)[C@H](CCCCN)NC(=O)[C@H](CC(=O)O)NC(=O)[C@H](CCSC)NC(=O)[C@H](CC(C)C)NC(=O)[C@H](CO)NC(=O)[C@H](CO)NC2=O)C(=O)N[C@@H](C(C)C)C(=O)N[C@@H](Cc2ccc(O)cc2)C(=O)N[C@@H](Cc2ccccc2)C(=O)N1)C(=O)N[C@H](C(=O)N[C@@H](Cc1c[nH]c2ccccc12)C(=O)O)[C@@H](C)CC", "note": "[ET-1, reference compound]", "values": [{"measurement": "increase in IUP", "setting": "male mongrel dogs; [2]", "result": 15, "unit": "mmHg"}, {"measurement": "peak pressor effect on DBP", "setting": "male mongrel dogs; [2]", "result": 25, "unit": "mmHg"}, {"measurement": "decrease in DBP (initial depressor effect)", "setting": "male mongrel dogs; ET-1 1 nmole/kg intra-arterial, before antagonist, average of both dogs", "result": 15, "unit": "mmHg"}]}
{"smiles": "[2H]C([2H])([2H])C([2H])(c1ccc(S(=O)(=O)NC(=O)C(Oc2ccc(C(=O)[O-])cc2CCC)c2ccc3c(c2)OCO3)cc1)C([2H])([2H])[2H].[2H]C([2H])([2H])C([2H])(c1ccc(S(=O)(=O)NC(=O)C(Oc2ccc(C(=O)[O-])cc2CCC)c2ccc3c(c2)OCO3)cc1)C([2H])([2H])[2H].[K+].[K+]", "note": "(stereo not drawn) [N-(4-isopropyl(d7)benzenesulfonyl)-α-(4-carboxy-2-n-propylphenoxy)-3,4-methylenedioxyphenylacetamide Dipotassium Salt]", "values": [{"measurement": "inhibition of ET-1 depressor effect on DBP", "setting": "male mongrel dogs; [3]", "result": 70, "unit": "%"}, {"measurement": "inhibition of ET-1 pressor effect on DBP", "setting": "male mongrel dogs; [3]", "result": 75, "unit": "%"}, {"measurement": "inhibition of ET-1 pressor effect on IUP", "setting": "male mongrel dogs; [3]", "result": 94, "unit": "%"}, {"measurement": "inhibition of phenylephrine-induced increase in DBP", "setting": "male mongrel dogs; [4]", "result": 33, "unit": "%"}, {"measurement": "inhibition of phenylephrine-induced increase in IUP", "setting": "male mongrel dogs; [4]", "result": 11, "unit": "%"}, {"measurement": "hemodynamic and prostatic urethral responses to ET-1", "setting": "male mongrel dogs; anesthetized dogs", "result": "specifically inhibited"}, {"measurement": "change of intra-arterial phenylephrine-induced increases in DBP and IUP after administration", "setting": "male mongrel dogs; one dog, specificity check", "result": "did not change significantly"}, {"measurement": "effect on ET-1 contraction of the prostate", "setting": "rat prostate", "result": "specific inhibition"}]}
{"smiles": "CCCCc1nc(Cl)c(CO)n1Cc1ccc(-c2ccccc2-c2nn[nH]n2)cc1", "note": "[Losartan]", "values": [{"measurement": "reduction in mean arterial blood pressure", "setting": "[1]", "result": 20, "unit": "mmHg"}]}
